In brackets after ≈: the same amount, converted by molar mass. Several values for one entry are separate records, joined by “and”; a condition that tells them apart may be missing. Equal values may be shown once. Read-outs that look alike come from different tables or passages of the source.
What was measured:
[1] = test system: M. kansasii CIT11/06; experiment: In vitro antimycobacterial evaluation (alamarBlue, 96 well plate); assay type: cell-based; conditions: Mycobacterium kansasii, CIT11/06, 120 h, read-out: MIC/IC90 M. kansasii
[2] = test system: M. absessus CIT21/06; experiment: as above; assay type: cell-based; conditions: read-out: MIC/IC90 M. absessus
[3] = test system: Mycobacterium avium complex CIT19/06; experiment: as above; assay type: cell-based; conditions: 120 h, read-out: MIC/IC90 M. avium complex
[4] = test system: M. smegmatis MC2155; experiment: as above; assay type: cell-based; conditions: Mycolicibacterium smegmatis
[5] = Lipophilicity HPLC determination (capacity factor k / calculated log k); assay type: physicochemical; conditions: RP-HPLC, C18, MeOH/H2O 55:45, non-buffered, isocratic
Excerpt: Some groups have used a C18 chromatographic column with methanol-water mobile phases to obtain log kw, i.e., the retention factor extrapolated to 0% organic modifier, as an alternative to log P [50]. The log kw is obtained by performing several measurements with various ratios of water/organic solvent. Nevertheless determination of log kw has some disadvantages in that it is time consuming due to the various measurements that need to be undertaken before calculation of log kw. The main reason for the measurement is that it is more convenient to perform a systematic study of log k of various heteroaromatic compounds using mobile phases containing around 50% methanol due to various intramolecular interactions between heteroatoms and substituents. Therefore this study was performed using methanol/water (55:45) as the mobile phase. The conditions (non-buffered mobile phase) were chosen with respect to conditions of biological evaluations, which are performed mostly under neutral conditions (pH ~ 7). The lipophilicity data can be strongly influenced by intramolecular interactions under the applied chromatographic conditions which were investigated in the paper. The HPLC separation module Waters Alliance 2695 XE and Waters Photodiode Array Detector 2996 (Waters Corp., Milford, MA, U.S.A.) were used. The chromatographic column Symmetry® C18 5 μm, 4.6 × 250 mm, Part No. WAT054275, (Waters Corp., Milford, MA, U.S.A.) was used. The HPLC separation process was monitored by Millennium32® Chromatography Manager Software, Waters 2004 (Waters Corp.). The mixture of MeOH p.a. (55.0%) and H2O-HPLC – Mili-Q Grade (45.0%) was used as a mobile phase. The total flow of the column was 0.9 mL/min, injection 30 μL, column temperature 30 °C and sample temperature 10 °C. The detection wavelength 210 nm was chosen. The KI methanolic solution was used for the dead time (tD) determination. Retention times (tR) were measured in minutes. The capacity factors k were calculated using the Millennium32® Chromatography Manager Software according to formula k = (tR - tD)/tD, where tR is the retention time of the solute, whereas tD denotes the dead time obtained via an unretained analyte.

[6] = test system: photosynthetic electron transport (PET) in spinach chloroplasts; experiment: Inhibition of photosynthetic electron transport (PET) in spinach chloroplasts, DCPIP photoreduction; assay type: biochemical, Spinacia oleracea L.; conditions: phosphate buffer pH 7.2, DMSO up to 4%
Experimental: Chloroplasts were prepared from spinach (Spinacia oleracea L.) according to Masarovicova and Kralova. The inhibition of photosynthetic electron transport (PET) in spinach chloroplasts was determined spectrophotometrically (Genesys 6, Thermo Scientific, U.S.A.) using an artificial electron acceptor 2,6-dichlorophenol-indophenol (DCIPP) according to Kralova et al. and the rate of photosynthetic electron transport was monitored as a photoreduction of DCPIP. The measurements were carried out in phosphate buffer (0.02 mol/L, pH 7.2) containing sucrose (0.4 mol/L), MgCl2 (0.005 mol/L) and NaCl (0.015 mol/L). The chlorophyll content was 30 mg/L in these experiments and the samples were irradiated (~100 W/m^2) from 10 cm distance with a halogen lamp (250 W) using a 4 cm water filter to prevent warming of the samples (suspension temperature 22 °C). The studied compounds were dissolved in DMSO due to their limited water solubility. […] The inhibitory efficiency of the studied compounds was expressed by IC50 values, i.e. by molar concentration of the compounds causing 50% decrease in the oxygen evolution rate relative to the untreated control.

[7] = test system: photosynthetic electron transport (PET) in spinach chloroplasts; design: method as in earlier work; conditions: standard, read-out: PET inhibition IC50; cited from earlier work
[8] = Middlebrook broth, 37 °C five days
[9] = Middlebrook broth, 37 °C overnight
[10] = MC2155, Middlebrook broth, 37 °C overnight, read-out: MIC/IC90 M. smegmatis

MIC [1, 8] [µg/mL] | MIC [2, 9] [µg/mL] | MIC [3, 8] [µg/mL] | MIC [4, 10] [µg/mL] | log k [5] | IC50 [6] [µM] | SMILES | MIC [1] [µg/mL] | MIC [2] [µg/mL] | MIC [3] [µg/mL] | MIC ([4]; MC2155, read-out: MIC/IC90 M. smegmatis) [µg/mL] | IC50 [7]
< 10 | > 100 | < 10 | 39 (≈ 284 µM) | – | – | NNC(=O)c1ccncc1 [INH, isoniazid, reference compound] | – | – | – | – | –
> 100 | > 100 | > 100 | > 100 | 1.4830 | – | O=c1[nH]c(/C=C/c2ccccc2Br)nc2ccccc12 [Compound 3g, 2-[(E)-2-(2-Bromophenyl)vinyl]quinazolin-4(3H)-one] | – | – | – | – | –
– | – | – | – | 0.5510 | – | O=c1[nH]c(/C=C/c2ccc(O)c(O)c2O)nc2ccccc12 [Compound 3k, 2-[(E)-2-(2,3,4-Trihydroxyphenyl)vinyl]quinazolin-4(3H)-one] | – | – | – | – | –
> 100 | > 100 | > 100 | > 100 | 1.5927 | 665 | O=c1[nH]c(/C=C/c2ccc(Br)cc2)nc2ccccc12 [Compound 3i, 2-[(E)-2-(4-Bromophenyl)vinyl]quinazolin-4(3H)-one] | – | – | – | – | –
– | – | – | – | – | – | CN(C)C(=O)Nc1ccc(Cl)c(Cl)c1 [DCMU, 3-(3,4-dichlorophenyl)-1,1-dimethylurea] | – | – | – | – | ~1.9 µM and 1.9 µM
> 100 | > 100 | > 100 | > 100 | 1.1337 | 390 | COc1ccc(/C=C/c2nc(Cl)c3ccccc3n2)cc1 [Compound 4d, 4-Chloro-2-[(E)-2-(4-methoxyphenyl)vinyl]quinazoline] | – | – | – | – | –
> 100 | > 100 | > 100 | > 100 | 1.1351 | 693 | COc1ccc(/C=C/c2nc3ccccc3c(=O)[nH]2)cc1 [Compound 3d, 2-[(E)-2-(4-Methoxyphenyl)vinyl]quinazolin-4(3H)-one] | – | – | – | – | –
> 300 | > 300 | > 300 | > 300 | 0.7047 | 362 | Cc1nc2ccccc2c(=O)n1CCO [Compound 2, 3-(2-Hydroxyethyl)-2-methylquinazolin-4(3H)-one] | – | – | – | – | –
> 100 | > 100 | > 100 | > 100 | 1.1837 | – | COc1cccc(/C=C/c2nc3ccccc3c(=O)[nH]2)c1 [Compound 3c, 2-[(E)-2-(3-Methoxyphenyl)vinyl]quinazolin-4(3H)-one] | – | – | – | – | –
> 300 | > 300 | > 300 | > 300 | 1.1148 | – | O=c1[nH]c(/C=C/c2ccccc2)nc2ccccc12 [Compound 3a, 2-(E)-Styrylquinazolin-4(3H)-one] | – | – | – | – | –
> 100 | > 100 | > 100 | > 100 | 1.1509 | – | COc1ccccc1/C=C/c1nc2ccccc2c(=O)[nH]1 [Compound 3b, 2-[(E)-2-(2-Methoxyphenyl)vinyl]quinazolin-4(3H)-one] | – | – | – | – | –
> 100 | > 100 | > 100 | > 100 | 1.1088 | 285 | Clc1nc(/C=C/c2ccccc2)nc2ccccc12 [Compound 4a, 4-Chloro-2-(E)-styrylquinazoline] | – | – | – | – | –
60 (≈ 202 µM) | 80 (≈ 270 µM) | 80 (≈ 270 µM) | > 100 | 1.1497 | – | COc1ccccc1/C=C/c1nc(Cl)c2ccccc2n1 [Compound 4b, 4-Chloro-2-[(E)-2-(2-methoxyphenyl)vinyl]quinazoline] | – | – | – | – | –
> 100 | > 100 | > 100 | > 100 | 1.5904 | 561 | O=c1[nH]c(/C=C/c2cccc(Br)c2)nc2ccccc12 [Compound 3h, 2-[(E)-2-(3-Bromophenyl)vinyl]quinazolin-4(3H)-one] | – | – | – | – | –
> 100 | > 100 | > 100 | > 100 | 1.1953 | 508 | COc1ccc(/C=C/c2nc(Cl)c3ccccc3n2)c(OC)c1 [Compound 4e, 4-Chloro-2-[(E)-2-(2,4-dimethoxyphenyl)vinyl]quinazoline] | – | – | – | – | –
> 300 | > 300 | > 300 | > 300 | 1.5059 | 1030 | O=c1[nH]c(/C=C/c2cccc(Cl)c2)nc2ccccc12 [Compound 3f, 2-[(E)-2-(3-Chlorophenyl)vinyl]quinazolin-4(3H)-one] | – | – | – | – | –
– | – | – | – | 0.8005 | – | O=Cc1ccc(/C=C/c2nc3ccccc3c(=O)[nH]2)cc1 [Compound 3j, 2-[(E)-2-(4-Carbaldehydephenyl)vinyl]quinazolin-4(3H)-one] | – | – | – | – | –
60 (≈ 202 µM) | > 100 | > 100 | > 100 | 1.1827 | 303 | COc1cccc(/C=C/c2nc(Cl)c3ccccc3n2)c1 [Compound 4c, 4-Chloro-2-[(E)-2-(3-methoxyphenyl)vinyl]quinazoline] | – | – | – | – | –
20 (≈ 64.9 µM) | 80 (≈ 259 µM) | 80 (≈ 259 µM) | > 100 | 1.1982 | 391 | COc1ccc(/C=C/c2nc3ccccc3c(=O)[nH]2)c(OC)c1 [Compound 3e, 2-[(E)-2-(2,4-Dimethoxyphenyl)vinyl]quinazolin-4(3H)-one] | – | – | – | – | –

SMILES | MIC [1, 8] [µg/mL] | MIC [2, 9] [µg/mL] | MIC [3, 8] [µg/mL] | MIC [4, 10] [µg/mL] | log k [5] | IC50 [6] [µM] | MIC [1] [µg/mL] | MIC [2] [µg/mL] | MIC [3] [µg/mL] | MIC ([4]; MC2155, read-out: MIC/IC90 M. smegmatis) [µg/mL] | IC50 [7]
Cc1nc2ccccc2c(=O)[nH]1 [Compound 1, 2-Methylquinazolin-4(3H)-one] | – | – | – | – | 0.1170 | – | > 300 | > 300 | > 300 | > 300 | –

Source: paper PMC6254837, “Investigating Biological Activity Spectrum for Novel Styrylquinazoline Analogues” (Molecules, 2009)
